Measurements: ChEMBL document CHEMBL1154622, “Structure-guided design of potent and selective pyrimidylpyrrole inhibitors of extracellular signal-regulated kinase (ERK) using conformational control” (J Med Chem, 2009)

Experiments:
[1] = Inhibition of GSK3
[2] = target: T1, Aurora kinase A (Homo sapiens, UniProt O14965); test: Inhibition of AURA
T1 sequence (O14965 whole entry): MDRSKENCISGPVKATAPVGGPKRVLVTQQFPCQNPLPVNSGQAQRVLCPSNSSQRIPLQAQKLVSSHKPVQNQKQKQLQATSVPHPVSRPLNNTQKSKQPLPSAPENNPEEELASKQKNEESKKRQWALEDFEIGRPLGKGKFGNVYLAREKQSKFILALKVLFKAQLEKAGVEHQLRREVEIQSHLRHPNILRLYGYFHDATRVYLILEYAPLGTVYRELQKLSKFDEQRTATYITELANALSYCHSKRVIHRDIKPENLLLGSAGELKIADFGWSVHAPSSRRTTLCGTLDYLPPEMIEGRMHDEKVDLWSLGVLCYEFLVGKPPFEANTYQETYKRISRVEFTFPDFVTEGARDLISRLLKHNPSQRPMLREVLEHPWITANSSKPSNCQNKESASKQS

[3] = test system: HT-29; test: Antiproliferative activity against human HT-29 cells; type: functional, cell-based
[4] = target: Mitogen-activated protein kinase 1 (Homo sapiens, UniProt P28482)
Description: Inhibition of ERK2 after 10 mins by spectrophotometric coupled-enzyme assay

[5] = target: Cyclin-dependent kinase 2 (Homo sapiens, UniProt P24941)

Chain of Mitogen-activated protein kinase 1 (P28482 whole entry): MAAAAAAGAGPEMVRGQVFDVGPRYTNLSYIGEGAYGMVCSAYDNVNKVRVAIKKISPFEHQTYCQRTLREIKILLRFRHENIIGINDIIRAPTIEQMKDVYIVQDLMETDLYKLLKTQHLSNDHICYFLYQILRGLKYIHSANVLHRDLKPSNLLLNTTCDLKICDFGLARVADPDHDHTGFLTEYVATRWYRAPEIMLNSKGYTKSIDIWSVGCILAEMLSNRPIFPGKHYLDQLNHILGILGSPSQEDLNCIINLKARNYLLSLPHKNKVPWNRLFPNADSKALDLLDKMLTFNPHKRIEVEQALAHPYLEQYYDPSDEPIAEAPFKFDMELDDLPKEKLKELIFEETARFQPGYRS

SMILES | Ki [1] [nM] | Ki [2] [nM] | IC50 [3] [nM] | Ki [4] [nM] | Ki [5] [nM]
Cc1cnc(Nc2cccc3c2OC(F)(F)O3)nc1-c1c[nH]c(C(=O)N[C@H](CO)c2cccc(Cl)c2)c1 | 310 | > 800 | 280 | < 2 | 170
Cc1cnc(Nc2ccccc2F)nc1-c1c[nH]c(C(=O)N[C@H](CO)c2ccccc2)c1 | 45 | 160 | 26 | < 2 | 57
CCc1ccccc1Nc1ncc(C)c(-c2c[nH]c(C(=O)N[C@H](CO)c3cccc(Cl)c3)c2)n1 | 150 | 720 | 39 | < 2 | 450
Cc1cnc(Nc2cccc(C)c2C)nc1-c1c[nH]c(C(=O)N[C@H](CO)c2cccc(Cl)c2)c1 | 110 | 440 | – | < 2 | 41
COc1cccc(Nc2ncc(C)c(-c3c[nH]c(C(=O)N[C@H](CO)c4cccc(Cl)c4)c3)n2)c1OC | > 2500 | > 200 | 230 | 3 | > 2500
Cc1cnc(Nc2cccc3c2OCO3)nc1-c1c[nH]c(C(=O)N[C@H](CO)c2cccc(Cl)c2)c1 | 33 | 15 | 58 | < 2 | 209
Cc1cnc(Nc2ccccc2)nc1-c1c[nH]c(C(=O)N[C@@H](CO)c2ccccc2)c1 | – | 270 | – | 670 | –
Cc1cc(Cl)ccc1Nc1ncc(C)c(-c2c[nH]c(C(=O)N[C@H](CO)c3cccc(Cl)c3)c2)n1 | 1100 | 410 | 98 | 5 | 76
CCc1ccccc1Nc1ncc(C)c(-c2c[nH]c(C(=O)N[C@H](CO)c3ccccc3)c2)n1 | 760 | 1430 | 66 | 3 | 210
Cc1cnc(Nc2ccccc2O)nc1-c1c[nH]c(C(=O)N[C@H](CO)c2ccccc2)c1 | < 2 | 99 | 3000 | 4 | < 100
Cc1cnc(Nc2ccc(Cl)cc2F)nc1-c1c[nH]c(C(=O)N[C@H](CO)c2cccc(Cl)c2)c1 | 450 | 540 | 97 | 5 | 316
Cc1cnc(Nc2ccccc2)nc1-c1c[nH]c(C(=O)N[C@H](CO)c2cccc(Cl)c2)c1 | 140 | 19 | 100 | < 2 | 290
Cc1cnc(Nc2cccc3c2CCC3)nc1-c1c[nH]c(C(=O)N[C@H](CO)c2cccc(Cl)c2)c1 | 350 | 550 | 250 | < 2 | 642
Cc1ccccc1Nc1ncc(C)c(-c2c[nH]c(C(=O)N[C@H](CO)c3ccccc3)c2)n1 | – | 860 | – | – | –
Cc1ccccc1Nc1ncc(C)c(-c2c[nH]c(C(=O)N[C@H](CO)c3cccc(Cl)c3)c2)n1 | < 2 | 400 | – | – | –
Cc1cnc(Nc2ccccc2)nc1-c1c[nH]c(C(=O)N[C@H](CO)c2ccccc2)c1 | – | 15 | 29 | < 2 | –
Cc1cnc(Nc2cccc3c2CCCC3)nc1-c1c[nH]c(C(=O)N[C@H](CO)c2cccc(Cl)c2)c1 | 667 | 280 | 420 | 13 | 250
Cc1cnc(Nc2ccccc2Cl)nc1-c1c[nH]c(C(=O)N[C@H](CO)c2ccccc2)c1 | 190 | 1550 | – | < 2 | 240
Cc1cccc([C@@H](CO)NC(=O)c2cc(-c3nc(Nc4ccccc4)ncc3C)c[nH]2)c1 | 26 | 45 | 40 | < 2 | 69
Cc1cnc(Nc2cccc3c2OCCO3)nc1-c1c[nH]c(C(=O)N[C@H](CO)c2cccc(Cl)c2)c1 | 45 | 11 | 58 | 15 | 138
Cc1cnc(Nc2cccc(F)c2C)nc1-c1c[nH]c(C(=O)N[C@H](CO)c2cccc(Cl)c2)c1 | 1260 | 410 | 56 | 34 | 150
Cc1cnc(Nc2ccccc2C(F)(F)F)nc1-c1c[nH]c(C(=O)N[C@H](CO)c2ccccc2)c1 | – | > 800 | 6300 | – | > 4000
